In one data set the test system is chronic active UC. As to conditions: cited from earlier work.
Data set [1] in a line: Chemical stability assessment of core formulations (HPLC assay and related substances). It is filed as physicochemical. As to conditions: reference raw material. The method, then: The bulk mixes were assessed physically and chemically initially and following four weeks of storage at 40° C./75% RH. For the physical assessments, samples were assessed visually for appearance changes, focusing on colour and physical behaviour.
The samples were run on an X Bridge BEH C18, 2.5 μm, 4.6 mm×50 mm column with a flow rate of 0.4 ml/min at 60° C., a run time of 60 minutes and a detection wavelength of 260 nm. The sample injection volume was […] with a sampler temperature of 5° C. The mobile phase compositions were as follows: • Mobile phase A 3% Acetonitrile in 0.2% TEA, 1% HFIP, • Mobile phase B 12% Acetonitrile in 0.2% TEA, 1% HFIP, • Mobile phase C Acetonitrile, • Mobile phase D water.

A short description of data set [2]: Cobitolimod suspension limit in Capryol only. It is filed as physicochemical. As to conditions: corresponding to 13-14% cobitolimod in Capryol PGMC. The method, then: The cobitolimod suspension limit in Capryol only was assessed by repeating the steps of (i) adding the API to Capryol, (ii) spatula stirring and (iii) sonication, until the suspension became unworkable due to, for example, being too viscous, agglomerates forming that would not break down etc.

The conditions of data set [3]: observed during manufacture of Example 3 formulation.
Description: The vials were then high shear mixed for a minimum of 2×2 minutes then allowed to settle, all had visible insoluble material, therefore the samples were then high shear mixed for a further 2 minutes and visually assessed before samples taken for pH analysis. pH analysis involved centrifuging the sample at 14000 RPM for 10 minutes to separate out the insoluble material and then diluting 1 g of the clear supernatant with 3 g of deionised water, mixing thoroughly and measuring the pH.
A further data set has as its system UC. To be noted: versus placebo; cited from earlier work.

Oligonucleotides are written 5' to 3', each unit as a sugar letter and its base; * is a phosphorothioate linkage, no mark a phosphodiester; rarer units and linkages stand in square brackets, end groups in braces. Plain capitals give the bases only. d = 2'-deoxy (DNA)

The values below come from patent US11596608B2, “Formulation” (INDEX PHARMACEUTICALS AB, priority 2018, dated 2023).

Take “5′-G*G*A*ACAGTTCGTCCAT*G*G*C-3′ (DNA dG*dG*dA*dAdCdAdGdTdTdCdGdTdCdCdAdT*dG*dG*dC) [cobitolimod]”: the safety and tolerability entry in the data set with chronic active UC (human, in vivo) was “safe and well tolerated”. In the data set on chronic active UC (patients with chronic active UC), the clinical efficacy entry was “effective to induce clinical response and remission”. The same compound came in with an impurity level in data set [1] of 5.3 area %. The “limit of suspendability expressed per capsule” value in data set [2] is “approx. 53 mg cobitolimod/capsule”.
Regarding `NC(CO)(CO)CO` [tromethamine], in data set [3], the “solubility of tromethamine in Capryol PGMC” value is recorded as “some insolubility”.
Turning to “vedolizumab: α4β7 integrin inhibitor approved for the treatment of UC”, the “inducing and maintaining clinical response, clinical remission, and mucosal healing” value in the data set on UC is “more effective than placebo”.
